Among the test systems are EKVX NSCLC; OVCAR-8 ovarian; IGROV1 ovarian; NCI-H226 lung; SF-295 CNS; MDA-N; ACHN renal; K-562 leukemia; OVCAR-5 ovarian; NCI-H23 lung.
Common to all, as to assay: NCI anticancer screen, dose series, 48 h

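Protocol summary: plate cells (96-well), add compound at 5 concentrations, incubate 48 h, interpolate endpoints linearly. TGI: total growth inhibition.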

`CCOC(=O)C1=C(N2CCCC2)C(=O)C(C(=O)OCC)C1` (stereo not given): the TGI with EKVX NSCLC, in the test with OVCAR-8 ovarian, with IGROV1 ovarian, in the test on NCI-H226 lung, in the test with SF-295 CNS and with MDA-N was > 100 µM throughout. In addition, the TGI in the test with ACHN renal, in the test on K-562 leukemia, with OVCAR-5 ovarian and with NCI-H23 lung was > 100 µM throughout.
On to `CC(Cl)(CCC(Cl)C(C)(C)Cl)C(=O)CBr` (stereo not given), for which the TGI is 30.9 µM in the test on EKVX NSCLC; 23.7 µM in the test on OVCAR-8 ovarian; 26.7 µM in the test on IGROV1 ovarian; 33.7 µM in the test on NCI-H226 lung; 55.4 µM in the test with SF-295 CNS; 21.3 µM in the test on MDA-N. Also, the TGI in the test on ACHN renal was 20.9 µM; in the test on K-562 leukemia it was > 100 µM; in the test with OVCAR-5 ovarian, 31.6 µM; with NCI-H23 lung, 39.5 µM.
On to `COC(=O)CCCc1nc2ccccc2nc1N=Nc1ccccc1`, for which the TGI in the test with EKVX NSCLC was > 100 µM; in the test with OVCAR-8 ovarian, 58.5 µM; in the test on IGROV1 ovarian, > 100 µM; in the test with NCI-H226 lung, > 100 µM; in the test with SF-295 CNS, > 100 µM; in the test with MDA-N, > 100 µM. Moreover, the TGI is > 100 µM with ACHN renal, 58.2 µM in the test with K-562 leukemia, > 100 µM with OVCAR-5 ovarian and > 100 µM in the test with NCI-H23 lung.
With `Clc1cc(Cl)nc(Nc2ccc3c(c2)CCC3)n1`, the TGI in the test with EKVX NSCLC is 71.5 µM; in the test with OVCAR-8 ovarian, > 100 µM; in the test on IGROV1 ovarian it was 72.3 µM; in the test with NCI-H226 lung, > 100 µM; in the test with SF-295 CNS, > 100 µM; with MDA-N, > 100 µM. The TGI with ACHN renal is > 100 µM; in the test on K-562 leukemia it was 46 µM; with OVCAR-5 ovarian, > 100 µM; in the test with NCI-H23 lung it was > 100 µM.

The values above are taken from PubChem BioAssay (NCI).
